Measured values as given in US9062041B2 (Bayer Intellectual Property GmbH, priority 2011, dated 2015).

Tests used:
Assay type in all cases: cell-based
[1] = molecular target: EP4 subtype of the human PGE2 receptor (Homo sapiens, UniProt P35408); assay: cAMP antagonism test on the human EP4 receptor (HTRF cAMP detection); details: selectivity towards hEP4, IC50 measured by cAMP antagonism test
Summary of the method: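 Cells expressing human EP4 preincubated 20 min at RT with compound (0.8 nM–16.5 μM), then stimulated with PGE2 (0.3 nM in 3× solution, with IBMX) 60 min at RT. After lysis, cAMP measured by HTRF competition (665/620 nm ratio); antagonism seen as rise in FRET signal.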

human PGD receptor = molecular target: T1, human PGD receptor (Homo sapiens, UniProt Q13258); assay: cAMP antagonism test on the human prostaglandin D receptor (HTRF cAMP detection); details: selectivity towards hDP, IC50 measured by cAMP antagonism test
T1 sequence (Q13258 1-359): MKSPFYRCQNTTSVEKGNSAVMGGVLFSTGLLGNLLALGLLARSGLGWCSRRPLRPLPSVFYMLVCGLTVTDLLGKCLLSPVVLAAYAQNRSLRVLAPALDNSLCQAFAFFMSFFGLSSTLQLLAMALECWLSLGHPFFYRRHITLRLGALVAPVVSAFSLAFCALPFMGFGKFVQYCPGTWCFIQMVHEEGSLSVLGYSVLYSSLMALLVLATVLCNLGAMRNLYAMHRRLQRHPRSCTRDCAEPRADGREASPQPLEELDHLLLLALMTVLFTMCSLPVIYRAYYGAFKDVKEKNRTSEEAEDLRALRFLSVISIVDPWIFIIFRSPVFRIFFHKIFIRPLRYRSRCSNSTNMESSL
Summary of the method: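 Cells pre-mixed with cAMP-d2 were preincubated with compound (0.8 nM–16.5 μM) for 20 min at RT, then stimulated with 3× PGD2 solution (6 nM, in PBS-IBMX) for 30 min at RT. After lysis (20 min), HTRF read at 665/620 nm; antagonism seen as rise in FRET ratio.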

[2] = molecular target: EP2 subtype of the human PGE2 receptor (Homo sapiens, UniProt P43116); assay: cAMP antagonism test on the human EP2 receptor (HTRF cAMP detection); details: hEP2 receptor, read-out: Antagonism hEP2 IC50
Summary of the method: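 Cells expressing human EP2 preincubated 20 min at RT with compound (0.8 nM–16.5 μM), then stimulated 60 min with PGE2 (3× solution 1.5 nM) in PBS-IBMX. After 20 min lysis, cAMP measured by competitive HTRF with cAMP-d2 and Eu cryptate anti-cAMP antibody (665/620 nm ratio).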

Sequence of EP2 subtype of the human PGE2 receptor (P43116 whole entry): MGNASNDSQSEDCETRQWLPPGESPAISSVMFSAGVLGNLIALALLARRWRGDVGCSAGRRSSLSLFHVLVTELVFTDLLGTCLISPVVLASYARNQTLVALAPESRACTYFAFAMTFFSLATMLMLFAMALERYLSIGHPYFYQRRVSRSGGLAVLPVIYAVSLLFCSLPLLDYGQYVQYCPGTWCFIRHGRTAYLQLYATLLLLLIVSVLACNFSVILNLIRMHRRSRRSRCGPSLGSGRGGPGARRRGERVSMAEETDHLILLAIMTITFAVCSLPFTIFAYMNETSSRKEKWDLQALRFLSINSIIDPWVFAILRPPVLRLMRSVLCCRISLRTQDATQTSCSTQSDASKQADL
Sequence of EP4 subtype of the human PGE2 receptor (P35408 whole entry): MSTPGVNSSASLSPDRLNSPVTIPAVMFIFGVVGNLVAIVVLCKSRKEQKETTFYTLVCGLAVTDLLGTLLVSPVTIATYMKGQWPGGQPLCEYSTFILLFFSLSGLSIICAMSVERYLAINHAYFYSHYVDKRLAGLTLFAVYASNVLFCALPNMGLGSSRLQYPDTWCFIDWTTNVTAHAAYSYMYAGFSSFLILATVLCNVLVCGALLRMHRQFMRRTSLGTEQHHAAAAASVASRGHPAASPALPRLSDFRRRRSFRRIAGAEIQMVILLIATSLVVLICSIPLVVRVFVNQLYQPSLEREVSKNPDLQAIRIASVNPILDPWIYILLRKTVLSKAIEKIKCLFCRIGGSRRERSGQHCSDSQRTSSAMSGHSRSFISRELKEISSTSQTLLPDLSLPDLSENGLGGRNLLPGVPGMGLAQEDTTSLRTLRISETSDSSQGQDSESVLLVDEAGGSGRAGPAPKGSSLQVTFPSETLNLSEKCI

Row | SMILES | Selectivity hEP2/hEP4 [1] | Selectivity hEP2/hDP (human PGD receptor) | IC50 [2] [nM]
1 | Cc1c(C(=O)NCC2CCC2)ccc2nn(CC3CCN(C(=O)c4ccc(Cl)cc4)CC3)cc12 [Example 250, 2-{[1-(4-chlorobenzoyl)piperidin-4-yl]methyl}-N-(cyclobutylmethyl)-4-methyl-2H-indazol-5-carboxamide] | xxx (xxx > 100) | xxx (xxx > 100) | 30.6
2 | Cc1c(C(=O)NCCC#N)ccc2nn(CC3CCN(C(=O)c4ccc(Cl)cc4)CC3)cc12 [Example 400, 2-{[1-(4-chlorobenzoyl)piperidin-4-yl]methyl}-N-(2-cyanoethyl)-4-methyl-2H-indazol-5-carboxamide] | xxx (xxx > 100) | xxx (xxx > 100) | 56.1
3 | COCCNC(=O)c1ccc2nn(CC3CCN(C(=O)c4cnc(-c5ccccc5)s4)CC3)cc2c1C [Example 337, N-(2-methoxyethyl)-4-methyl-2-({1-[(2-phenylthiazol-5-yl)carbonyl]piperidin-4-yl}methyl)-2H-indazol-5-carboxamide] | xxx (xxx > 100) | xxx (xxx > 100) | 18.1
4 | Cc1c(C(=O)NCC#N)ccc2nn(CC3CCN(C(=O)c4ccc(Cl)cc4)CC3)cc12 [Example 401, 2-{[1-(4-chlorobenzoyl)piperidin-4-yl]methyl}-N-(cyanomethyl)-4-methyl-2H-indazol-5-carboxamide] | xxx (xxx > 100) | xxx (xxx > 100) | 155
5 | COCCNC(=O)c1ccc2nn(CC3CN(C(=O)c4ccc(OC(F)(F)F)cc4)C3)cc2c1OC [Example 254, 4-methoxy-N-(2-methoxyethyl)-2-({1-[4-(trifluoromethoxy)benzoyl]azetidin-3-yl}methyl)-2H-indazol-5-carboxamide] | xxx (xxx > 100) | xxx (xxx > 100) | 55.2
6 | Cc1cc2nn(CC3CCN(C(=O)c4cccc(S(F)(F)(F)(F)F)c4)CC3)cc2cc1C(=O)NCCN1CCOCC1 [Example 81, 6-methyl-N-(2-morpholinoethyl)-2-({1-[3-(pentafluoro-λ^6-sulphanyl)benzoyl]-piperidin-4-yl}-methyl)-2H-indazol-5-carboxamide] | xx (xx: 10-100) | xx (xx: 10-100) | 513
7 | Cc1c(C(=O)NCC2CCO2)ccc2nn(CC3CCN(C(=O)c4ccc(Cl)cc4)CC3)cc12 (racemic) [Example 412, (+/−)-2-{[1-(4-chlorobenzoyl)piperidin-4-yl]methyl}-4-methyl-N-(oxetan-2-ylmethyl)-2H-indazol-5-carboxamide] | xxx (xxx > 100) | xxx (xxx > 100) | 63.5
8 | COCCNC(=O)c1ccc2nn(CC3CCN(C(=O)c4ccc(Oc5nccc(C(F)(F)F)n5)cc4)CC3)cc2c1C [Example 347, N-(2-methoxyethyl)-4-methyl-2-{[1-(4-{[4-(trifluoromethyl)pyrimidin-2-yl]-oxy}benzoyl)piperidin-4-yl]methyl}-2H-indazol-5-carboxamide] | xxx (xxx > 100) | xxx (xxx > 100) | 7.88
9 | COCCNC(=O)c1ccc2nn(CC3CCN(C(=O)c4ccc(C(F)F)cc4)CC3)cc2c1C [Example 32, 2-({1-[4-(difluoro-methyl)benzoyl]-piperidin-4-yl}-methyl)-N-(2-methoxyethyl)-4-methyl-2H-indazol-5-carboxamide] | xxx (xxx > 100) | xxx (xxx > 100) | 10.4
10 | COCCNC(=O)c1cc2cn(CC3CN(C(=O)c4ccc(C(F)(F)F)cc4)C3)nc2cc1C [Example 186, N-(2-methoxyethyl)-6-methyl-2-({1-[4-(trifluoromethyl)benzoyl]azetidin-3-yl}methyl)-2H-indazol-5-carboxamide] | xxx (xxx > 100) | xxx (xxx > 100) | 51.9
11 | Cc1c(C(=O)NCCOC(F)(F)F)ccc2nn(CC3CCN(C(=O)c4ccc(Oc5ccc(F)cc5)cc4)CC3)cc12 [Example 108, 2-({1-[4-(4-fluoro-phenoxy)benzoyl]-piperidin-4-yl}methyl)-4-methyl-N-[2-(tri-fluoromethoxy)ethyl]-2H-indazol-5-carboxamide] | xxx (xxx > 100) | xxx (xxx > 100) | 6.46
12 | Cc1c(C(=O)NCC2CCCCO2)ccc2nn(CC3CN(C(=O)c4ccc(Cl)cc4)C3)cc12 (single isomer, unassigned) [Example 145, (R or S)-2-{[1-(4-chlorobenzoyl)azetidin-3-yl]methyl}-4-methyl-N-(3,4,5,6-tetrahydro-2H-pyran-2-ylmethyl)-2H-indazol-5-carboxamide] | xxx (xxx > 100) | xxx (xxx > 100) | 18.8
13 | COCCNC(=O)c1ccc2nn(CC3CCN(C(=O)c4ccc(Oc5ccc(C)cc5)cc4)CC3)cc2c1C [Example 15, N-(2-methoxyethyl)-4-methyl-2-({1-[4-(4-methylphenoxy)-benzoyl]piperidin-4-yl}methyl)-2H-indazol-5-carboxamide] | xxx (xxx > 100) | xxx (xxx > 100) | 4.17
14 | COCCNC(=O)c1ccc2nn(CC3CCN(C(=O)c4cc(-c5ccccc5)no4)CC3)cc2c1C [Example 13, N-(2-methoxyethyl)-4-methyl-2-({1-[(3-phenylisoxazol-5-yl)carbonyl]piperidin-4-yl}methyl)-2H-indazol-5-carboxamide] | xxx (xxx > 100) | xxx (xxx > 100) | 35.9
15 | Cc1cc2nn(CC3CCN(C(=O)c4ccc(C(F)(F)F)cc4F)CC3)cc2cc1C(=O)NCCN1CCOCC1 [Example 80, 2-({1-[2-fluoro-4-(trifluoromethyl)-benzoyl]piperidin-4-yl}-methyl)-6-methyl-N-(2-morpholinoethyl)-2H-indazol-5-carboxamide] | xxx (xxx > 100) | xxx (xxx > 100) | 85.9
16 | CCc1c(C(=O)NCCOC)ccc2nn(CC3CCN(C(=O)c4ccc(Cl)cc4)CC3)cc12 [Example 212, 2-{[1-(4-chlorobenzoyl)piperidin-4-yl]methyl}-4-ethyl-N-(2-methoxyethyl)-2H-indazol-5-carboxamide] | xxx (xxx > 100) | xxx (xxx > 100) | 106
17 | Cc1c(C(=O)NCCN2CCC(F)(F)C2)ccc2nn(CC3CN(C(=O)c4ccc(Cl)cc4)C3)cc12 [Example 126, 2-{[1-(4-chlorobenzoyl)azetidin-3-yl]methyl}-N-[2-(3,3-difluoropyrrolidin-1-yl)ethyl]-4-methyl-2H-indazol-5-carboxamide] | xxx (xxx > 100) | xxx (xxx > 100) | 21.2
18 | COc1c(C(=O)NCCN2CCC(F)(F)C2)ccc2nn(CC3CN(C(=O)c4ccc(Cl)cc4)C3)cc12 [Example 260, 2-{[1-(4-chlorobenzoyl)azetidin-3-yl]methyl}-N-[2-(3,3-difluoropyrrolidin-1-yl)ethyl]-4-methoxy-2H-indazol-5-carboxamide] | xxx (xxx > 100) | xxx (xxx > 100) | 8.02
19 | Cc1cc2nn(CC3CN(C(=O)c4ccc(S(F)(F)(F)(F)F)cc4)C3)cc2cc1C(=O)NCCSC(F)(F)F [Example 187, 6-methyl-2-({1-[4-(pentafluoro-λ^6-sulphanyl)benzoyl]azetidin-3-yl}methyl)-N-{2-[(trifluoromethyl)sulphanyl]ethyl}-2H-indazol-5-carboxamide] | xxx (xxx > 100) | xxx (xxx > 100) | 23.5
20 | COCCNC(=O)c1ccc2nn(CC3CCN(C(=O)c4ccc(-c5ccno5)cc4)CC3)cc2c1C [Example 37, N-(2-methoxyethyl)-4-methyl-2-({1-[4-(isoxazol-5-yl)-benzoyl]piperidin-4-yl}methyl)-2H-indazol-5-carboxamide] | xxx (xxx > 100) | xxx (xxx > 100) | 104
21 | Cc1c(C(=O)NCC(F)(F)F)ccc2nn(CC3CCN(C(=O)c4ccc(Oc5cccc(C(F)(F)F)c5)cc4)CC3)cc12 [Example 308, 4-methyl-N-(2,2,2-trifluoroethyl)-2-[(1-{4-[3-(trifluoromethyl)phenoxy]-benzoyl}piperidin-4-yl)methyl]-2H-indazol-5-carboxamide] | xxx (xxx > 100) | xxx (xxx > 100) | 22.2
